Measurements: ChEMBL document CHEMBL1201862, “PubChem BioAssay data set” (2004)
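Values below derive from 48-hour exposures of cells grown in 96-well plates, with endpoints linearly interpolated between the two concentrations bracketing the appropriate inhibition level. The concentration for 50% growth inhibition is given as GI50.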 The source made the active and inactive calls. No stated cut-off is given here; in the data, active = GI50 up to about 1.1 µM and inactive = higher.

What was measured:
Assay in all cases: DTP human tumour cell line panel, 48 h
A498 = tested on: A498
T47D = tested on: T47D
SK-MEL-5 = tested on: SK-MEL-5
HCT-116 = tested on: HCT-116
OVCAR-5 = tested on: OVCAR-5
RPMI-8226 = tested on: RPMI-8226
OVCAR-4 = tested on: OVCAR-4
MCF7 = tested on: MCF7
SR = tested on: SR
DU-145 = tested on: DU-145
TK-10 = tested on: TK-10
MOLT-4 = tested on: MOLT-4
SK-MEL-28 = tested on: SK-MEL-28
SF-539 = tested on: SF-539
Hs-578T = tested on: Hs-578T
A549 = tested on: A549
MDA-MB-435 = tested on: MDA-MB-435
MDA-MB-231 = tested on: MDA-MB-231
HOP-92 = tested on: HOP-92
SNB-75 = tested on: SNB-75

Row | SMILES | GI50 (A498) | GI50 (T47D) | GI50 (SK-MEL-5) | GI50 (HCT-116) | GI50 (OVCAR-5) | GI50 (RPMI-8226) | GI50 (OVCAR-4) | GI50 (MCF7) | GI50 (SR) | GI50 (DU-145) | GI50 (TK-10) | GI50 (MOLT-4) | GI50 (SK-MEL-28) | GI50 (SF-539) | GI50 (Hs-578T) | GI50 (A549) | GI50 (MDA-MB-435) | GI50 (MDA-MB-231) | GI50 (HOP-92) | GI50 (SNB-75)
1 | CC(=O)c1c(C)[n+]([O-])c2cc(Cl)c(Cl)cc2[n+]1[O-] | 23.7 µM (inactive) | 12.7 µM (inactive) | 11.6 µM (inactive) | 15.6 µM (inactive) | 38.3 µM (inactive) | 5.5 µM (inactive) | 15.6 µM (inactive) | 14.8 µM (inactive) | 6.75 µM (inactive) | 23.1 µM (inactive) | 16.9 µM (inactive) | 8.22 µM (inactive) | 29.8 µM (inactive) | 24.7 µM (inactive) | 20.7 µM (inactive) | 19.2 µM (inactive) | 21.3 µM (inactive) | 22.1 µM (inactive) | – | –
2 | O=C1CC(Br)c2c(Cl)sc(Cl)c21 (centres undefined) | 20.3 µM (inactive) | 4.18 µM (inactive) | 17.6 µM (inactive) | 4.56 µM (inactive) | 18 µM (inactive) | 1.43 µM (inactive) | – | 3.66 µM (inactive) | 3.89 µM (inactive) | 17 µM (inactive) | 2.54 µM (inactive) | 1.94 µM (inactive) | 13.6 µM (inactive) | 8.3 µM (inactive) | 16.5 µM (inactive) | 18.3 µM (inactive) | 2.39 µM (inactive) | 9.98 µM (inactive) | 15.1 µM (inactive) | 15.2 µM (inactive)
3 | COc1ccc(CC2NCCc3cc(OC)c(OC)cc32)cc1Br (centres undefined) | 30.1 µM (inactive) | 27.9 µM (inactive) | 13 µM (inactive) | 14.9 µM (inactive) | 19.5 µM (inactive) | 18.5 µM (inactive) | 38 µM (inactive) | > 100 µM (inactive) | 23.9 µM (inactive) | > 100 µM (inactive) | 25.6 µM (inactive) | 20.7 µM (inactive) | 16.6 µM (inactive) | 77.8 µM (inactive) | 19.2 µM (inactive) | 56 µM (inactive) | 25.1 µM (inactive) | 22 µM (inactive) | 15.1 µM (inactive) | 24.3 µM (inactive)
4 | Nc1nc(F)nc2c1ncn2C1OC(COP(=O)(O)O)C(O)C1O (centres undefined) | 146 µM (inactive) | 78.7 µM (inactive) | 56.4 µM (inactive) | 33.1 µM (inactive) | 41.9 µM (inactive) | 80.4 µM (inactive) | 212 µM (inactive) | 78.3 µM (inactive) | 21.8 µM (inactive) | 9.57 µM (inactive) | 128 µM (inactive) | 4.38 µM (inactive) | 58.1 µM (inactive) | 146 µM (inactive) | 81.5 µM (inactive) | 40.7 µM (inactive) | 11.9 µM (inactive) | 80.2 µM (inactive) | 7.38 µM (inactive) | 188 µM (inactive)
5 | COCOCC1CCCN1CN1CCC[C@H]1COCOC (some centres undefined) | > 100 µM (inactive) | > 100 µM (inactive) | > 100 µM (inactive) | 26.9 µM (inactive) | > 100 µM (inactive) | 33.8 µM (inactive) | > 100 µM (inactive) | 53.1 µM (inactive) | 49.8 µM (inactive) | 42.8 µM (inactive) | > 100 µM (inactive) | 50.4 µM (inactive) | > 100 µM (inactive) | – | > 100 µM (inactive) | > 100 µM (inactive) | > 100 µM (inactive) | > 100 µM (inactive) | > 100 µM (inactive) | > 100 µM (inactive)
6 | CN(C)[C@H]1CC[C@H]2[C@@H]3CCC4C[C@@H](NC(=O)NC(Cc5ccccc5)c5nccs5)CC[C@]4(C)[C@H]3CC[C@]12C (some centres undefined) | 1.69 µM (inactive) | 1.76 µM (inactive) | 0.789 µM (active) | 0.955 µM (active) | 1.76 µM (inactive) | 0.792 µM (active) | 1.72 µM (inactive) | 0.703 µM (active) | 1.51 µM (inactive) | 2.28 µM (inactive) | 2.04 µM (inactive) | 0.566 µM (active) | 1.11 µM (active) | 1.75 µM (inactive) | 2.19 µM (inactive) | 1.58 µM (inactive) | 0.51 µM (active) | 0.377 µM (active) | 1.53 µM (inactive) | 1.75 µM (inactive)
7 | Cn1c2c(c3ccccc31)CC(=O)N1CCCCC1C21OCCO1 (centres undefined) | > 100 µM (inactive) | > 100 µM (inactive) | > 100 µM (inactive) | > 100 µM (inactive) | > 100 µM (inactive) | > 100 µM (inactive) | > 100 µM (inactive) | > 100 µM (inactive) | > 100 µM (inactive) | > 100 µM (inactive) | > 100 µM (inactive) | > 100 µM (inactive) | > 100 µM (inactive) | – | > 100 µM (inactive) | > 100 µM (inactive) | > 100 µM (inactive) | > 100 µM (inactive) | > 100 µM (inactive) | > 100 µM (inactive)
8 | CCCCCCN(C(=O)Oc1ccccc1)C(C#N)c1ccccc1 (centres undefined) | > 100 µM (inactive) | > 100 µM (inactive) | > 100 µM (inactive) | > 100 µM (inactive) | > 100 µM (inactive) | > 100 µM (inactive) | > 100 µM (inactive) | > 100 µM (inactive) | > 100 µM (inactive) | > 100 µM (inactive) | > 100 µM (inactive) | > 100 µM (inactive) | > 100 µM (inactive) | > 100 µM (inactive) | > 100 µM (inactive) | > 100 µM (inactive) | > 100 µM (inactive) | > 100 µM (inactive) | > 100 µM (inactive) | > 100 µM (inactive)
9 | CN(CCCNC(=O)c1cn(C)c2c1ccc1cc(Cl)c(Cl)cc12)CCCNC(=O)c1cn(C)c2c1ccc1cc(Cl)c(Cl)cc12 | 12.9 µM (inactive) | 13.7 µM (inactive) | 14.7 µM (inactive) | 12.2 µM (inactive) | 16.4 µM (inactive) | – | 0.789 µM (active) | 5.16 µM (inactive) | 4.57 µM (inactive) | 15.3 µM (inactive) | 17.5 µM (inactive) | 10.4 µM (inactive) | 18.5 µM (inactive) | 15.7 µM (inactive) | 8.73 µM (inactive) | 11 µM (inactive) | 6.17 µM (inactive) | 15.4 µM (inactive) | 11.6 µM (inactive) | 10.8 µM (inactive)
10 | COc1ccccc1-n1cnc2c1=NC(C)(C)NC=2C(N)=O | > 100 µM (inactive) | > 100 µM (inactive) | > 100 µM (inactive) | > 100 µM (inactive) | > 100 µM (inactive) | > 100 µM (inactive) | > 100 µM (inactive) | > 100 µM (inactive) | > 100 µM (inactive) | > 100 µM (inactive) | > 100 µM (inactive) | – | > 100 µM (inactive) | > 100 µM (inactive) | > 100 µM (inactive) | > 100 µM (inactive) | > 100 µM (inactive) | > 100 µM (inactive) | – | > 100 µM (inactive)
11 | Cc1ccc(NC(=S)C#N)c(C)c1 | > 100 µM (inactive) | 46 µM (inactive) | 51.9 µM (inactive) | > 78.7 µM (inactive) | > 100 µM (inactive) | 21.3 µM (inactive) | > 64.1 µM (inactive) | > 69.5 µM (inactive) | 33.7 µM (inactive) | > 100 µM (inactive) | > 100 µM (inactive) | 28.8 µM (inactive) | 65.3 µM (inactive) | > 100 µM (inactive) | > 100 µM (inactive) | > 100 µM (inactive) | 56 µM (inactive) | > 100 µM (inactive) | 74.8 µM (inactive) | > 82.4 µM (inactive)
12 | COc1ccc(CC2Cc3ccccc3CC(=O)N2)cc1OC (centres undefined) | > 100 µM (inactive) | 17.3 µM (inactive) | 14.3 µM (inactive) | 98.9 µM (inactive) | > 100 µM (inactive) | – | 57 µM (inactive) | 52 µM (inactive) | 67.9 µM (inactive) | > 100 µM (inactive) | > 100 µM (inactive) | 24.6 µM (inactive) | > 100 µM (inactive) | > 100 µM (inactive) | > 100 µM (inactive) | > 100 µM (inactive) | 55.8 µM (inactive) | > 100 µM (inactive) | 89.5 µM (inactive) | 48.2 µM (inactive)
13 | NC(=O)N/N=C1/c2ccccc2-n2nccc21 | 38.7 µM (inactive) | 27.4 µM (inactive) | 82.8 µM (inactive) | 30.8 µM (inactive) | > 100 µM (inactive) | – | > 100 µM (inactive) | 21.5 µM (inactive) | 39 µM (inactive) | > 100 µM (inactive) | > 100 µM (inactive) | 47.1 µM (inactive) | > 100 µM (inactive) | 48.5 µM (inactive) | 85.5 µM (inactive) | 78.3 µM (inactive) | 57.4 µM (inactive) | > 100 µM (inactive) | 64.7 µM (inactive) | 28.8 µM (inactive)
14 | CC(C)CC(N)C(=O)NC(C(=O)NC(CCCNC(=N)N)C(=O)NC(CS)C(=O)NC1CSCC(C(=O)NC(Cc2ccccc2)C(=O)NC(C(=O)NC(CCCNC(=N)N)C(=O)O)C(C)C)NC(=O)C2CCCN2C(=O)C(CCCCN)NC(=O)C2CCCN2C(=O)C2CCCN2C(=O)C(Cc2ccc(O)cc2)NC(=O)C(CO)NC(=O)C(CCCCN)NC(=O)C(C(C)O)NC(=O)C(Cc2c[nH]c3ccccc23)NC1=O)C(C)C (centres undefined) | > 25 µM (inactive) | > 25 µM (inactive) | > 25 µM (inactive) | > 25 µM (inactive) | > 25 µM (inactive) | > 25 µM (inactive) | > 25 µM (inactive) | > 25 µM (inactive) | > 25 µM (inactive) | > 25 µM (inactive) | > 25 µM (inactive) | > 25 µM (inactive) | > 25 µM (inactive) | > 25 µM (inactive) | > 25 µM (inactive) | > 25 µM (inactive) | > 25 µM (inactive) | > 25 µM (inactive) | > 25 µM (inactive) | –
